Like-named read-outs stand apart in the source and are kept apart here.
Assays:
Format in all cases: cell-based, human
MCF-7 cells = assay: MTT cytotoxicity, breast cancer cells MCF-7; details: MTT
Text: (§1) The cytotoxicity, general tyrosine kinase inhibitory effects and cell death (apoptosis/necrosis) assays of 1-benzyl-3-(1H-indol-3-ylmethylidene)-1,3-dihydro-2H-indol-2-one derivatives (Formula 5) of the present invention are studied by the following methods. […] HUVEC (human umbilical vein endothelial cell), MCF-10F (human breast epithelial cell) and Beas2b (human lung bronchial epithelial cell) cell lines have been used as healthy control cells in MTT experiments.
(§2) Beas2b (human lung bronchiole epithelial cell) and HEK293 (renal tubule epithelium) cells used as normal cell lines were cultured in RPMI medium, and HUVEC (human umbilical cord endothelial cells) and MCF-10F (human breast epithelial cell) cells are cultured in DMEM medium containing 100 µg/ml penicillin/streptomycin. The cells, which covered 70% of the culture flask, are washed with phosphate buffer and then removed from the surface of the flask by application of trypsin-ethylenediamine tetraacetic acid (Trypsin-EDTA; 0.25%) solution, passaged, counted and seeded on appropriate plates before each experiment. Cells are treated with a total of 45 2-indolinone compounds (5) at concentrations of 0.1, 1, 5 and 10 μM. Stock compounds are prepared in 1 ml dimethylsulfoxide (DMSO) and 4 different dilutions were prepared with medium and performed to the cells. Control group cells are treated with DMSO at a similar concentration to the experimental groups.
(§3) MTT (3-(4,5-dimethylthiazol-2-yl)-2,5-diphenyl-2H-tetrazolium bromide) colorimetric assay provides quantitation of viable cells with ongoing mitochondrial activity in culture medium. According to the standard procedure in cell culture conditions, cells are maintained in RPMI-1640 and DMEM culture media containing 10% FBS and 1% penicillin/streptomycin. The trypan blue test is used for cell counts.
(§4) The effects of 45 2-indolinone compounds (5) on cell viability in all cancer cell lines are investigated by MTT assay. Cells are seeded in a 96-well flat bottom plate with 5000 cells in each well and 2-indolinone compounds (5) at concentrations of 0.1, 1, 5 and 10 μM are performed to the cells the next day. After 48 and/or 72 hours following treatment with 2-indolinone compounds, 50 μl of the supernatant is slowly discarded (as it was acid medium) and MTT at a concentration of 5 mg/ml is added to each well in a volume of 10 μl. After incubation for 4 hours, the formazan crystals formed in the wells are dissolved by adding 100 μl DMSO and the optical density is read at 570 nm test wavelength and 630 nm reference wavelength. Cell viability is expressed as % cell viability by comparing the absorbance of control and test wells. IC50 value is calculated from the dose-response curves prepared for each compound. In addition, the possible DMSO effect is eliminated by preparing negative control wells compatible with the amount of DMSO contained in the compounds. To understand the reaction of the compounds with MTT, cell-free (MTT+compounds) negative controls are prepared at the concentrations used (Mosmann, 1983). […] The absorbance values obtained are compared to the control and statistically evaluated by unpaired t-test using “Graphpad Prism 5.04” software. “P<0.05” is accepted as significant. When evaluating cytotoxic effects, the present inventors aim for the inventive compounds to be effective in cancer cells and ineffective in healthy cells. The inventive compounds have also been compared with sunitinib, one of the reference chemotherapy drugs currently used in treatment.
(§5) Among the compounds of the present invention, those that killed cancer cells by at least 50% (p<0.05) are selected and tested whether a 10-fold concentration of the M concentration at the IC50 value is toxic to normal healthy cells.

MDA-MB-231 cells = assay: MTT cytotoxicity, breast cancer cells MDA-MB-231; details: read-out: IC50, MDA-MB-231 (breast), MTT
Text: as §1, §2, §3, §4, §5

HUVEC cells = assay: MTT cytotoxicity, healthy cells HUVEC; details: for IC50: MTT
Text: as §1, §2, §3, §4, §5

HCT-116 cells = assay: MTT cytotoxicity, colon cancer cells HCT-116; details: no * mark (incubation time not specified)
Text: as §1, §2, §3, §4

HT-29 cells = assay: MTT cytotoxicity, colon cancer cells HT-29; details: MTT, no * mark (incubation time not specified)
Text: as §1, §2, §3, §4

MCF-10F/Beas2b cells = assay: MTT cytotoxicity, healthy cells MCF-10F/Beas2b; details: for IC50: MTT, no * mark (incubation time not specified)
Text: as §1, §2, §3, §4, §5

A498 cells = assay: MTT cytotoxicity, kidney cancer cells A498; details: MTT
Text: as §1, §2, §3, §4, §5

A549 cells = assay: MTT cytotoxicity, lung cancer cells A549; details: no * mark (incubation time not specified)
Text: as §1, §2, §3, §4, §5

MIAPaCa-2 cells = assay: MTT cytotoxicity, pancreas cancer cells MIAPaCa-2; details: MTT
Text: as §1, §2, §3, §4

CAKI-1 cells = assay: MTT cytotoxicity, kidney cancer cells CAKI-1
Text: as §1, §2, §3, §4, §5

[1] = no * mark (incubation time not specified)
[2] = no * mark (incubation time not given)
[3] = *: effective 72 hours after incubation

Compound | IC50 (MCF-7 cells; [1]) [µM] | IC50 (MDA-MB-231 cells; [2]) [µM] | IC50 (HUVEC cells; [1]) [µM] | IC50 (HCT-116 cells) [µM] | IC50 (HT-29 cells) [µM] | IC50 (MCF-10F/Beas2b cells) [µM] | IC50 (A498 cells; [1]) [µM] | IC50 (A549 cells) [µM] | IC50 (MIAPaCa-2 cells; [3]) [µM] | IC50 (CAKI-1 cells; [3]) [µM] | IC50 (A498 cells; [3]) [µM] | IC50 (CAKI-1 cells; [1]) [µM] | IC50 (MCF-7 cells; [3]) [µM] | IC50 (MDA-MB-231 cells; [3]) [µM] | Selectivite Index, HUVEC (Table 2) (HUVEC cells; HUVEC vs colon or pancreas cancer cells, cancer line not given) | Selectivite Index, MCF-10F/Beas2b (Table 2) (MCF-10F/Beas2b cells; MCF-10F/Beas2b vs colon or pancreas cancer cells, cancer line not given) | IC50 (MIAPaCa-2 cells; [1]) [µM] | IC50 (HUVEC cells; [3]) [µM]
O=C1/C(=C\c2c[nH]c3ccccc23)c2cc(OC(F)(F)F)ccc2N1Cc1cccc(F)c1 [2C] | 8.82 | 2.91 | 2.56 | 2.88 | > 10 | 3.07 | 4.78 | 3.58 | 7.35 | 5.46 |  |  |  |  |  |  |  | 
O=C1/C(=C\c2c[nH]c3ccccc23)c2cc(OC(F)(F)F)ccc2N1Cc1ccc(F)cc1 [3C] | 5.06 | 2.27 | 4.3 | 5.74 | 1.38 | 2.98 |  | 4.22 | 0.95 |  | 7.53 | 3.7 |  |  |  |  |  | 
O=C1/C(=C\c2c[nH]c3ccccc23)c2cc(OC(F)(F)F)ccc2N1Cc1cccc(Cl)c1 [4C] |  |  | 0.97 | 1.13 | > 10 | 1.73 | 3.05 | 2.42 | 3.67 | 2.79 |  |  | 3.06 | 3.07 |  |  |  | 
O=C1/C(=C\c2c[nH]c3ccccc23)c2cc(OC(F)(F)F)ccc2N1Cc1ccc(Cl)cc1 [5C] |  |  | 2.72 | 1.97 | 0.44 | 3.46 |  | 2.96 |  | 6.98 | 2.26 |  | 3.84 | 5.8 | 6.18 | 7.86 | > 10 | 
Cc1cccc(CN2C(=O)/C(=C\c3c[nH]c4ccccc34)c3cc(OC(F)(F)F)ccc32)c1 [6C] | 4.72 | 9.87 | > 10 | > 10 | > 10 |  | > 10 | > 10 | > 10 |  |  | 9.66 |  |  |  |  |  | 
O=C1/C(=C\c2c[nH]c3ccccc23)c2cc(F)ccc2N1Cc1ccc(F)cc1 [10C] | > 10 |  | 4.65 | 3.96 | 2.29 | 2.99 | 3.81 | 3.49 |  | 6.69 |  |  |  | 8.13 |  |  | 2.77 | 
O=C1/C(=C\c2c[nH]c3ccccc23)c2cc(F)ccc2N1Cc1cccc(Cl)c1 [11C] | > 10 | 7.25 | > 10 | > 10 | > 10 |  | > 10 | > 10 | > 10 |  |  | 9.81 |  |  |  |  |  | 
O=C1/C(=C\c2c[nH]c3ccccc23)c2cccc(Cl)c2N1Cc1cccc(F)c1 [23C] | 3.07 | > 10 | > 10 | > 10 | > 10 |  | 8.33 | > 10 | > 10 |  |  | 4.88 |  |  |  |  |  | 
O=C1/C(=C\c2c[nH]c3ccccc23)c2cccc(Cl)c2N1Cc1ccc(Cl)cc1 [26C] | 3.55 | > 10 | > 10 | > 10 | > 10 |  | 6.92 | > 10 | > 10 |  |  | 4.5 |  |  |  |  |  | 
O=C1/C(=C\c2c[nH]c3ccccc23)c2cccc(F)c2N1Cc1ccccc1 [29C] | 4.35 | > 10 |  | > 10 | > 10 |  | > 10 | > 10 |  |  |  | 4.12 |  |  |  |  | > 10 | 0.95
Cn1cc(/C=C2\C(=O)N(Cc3ccccc3)c3ccccc32)c2ccccc21 [Y12] | > 10 | > 10 | > 10 | 1.46 | > 10 |  | > 10 | > 10 |  |  |  | > 10 |  |  |  |  | > 10 | 
Cc1ccc2c(c1)/C(=C/c1cn(C)c3ccccc13)C(=O)N2Cc1ccccc1 [Y13] | > 10 | > 10 | 3.37 | 4.58 | 3.37 |  | > 10 | > 10 |  |  |  | > 10 |  |  |  |  | 2.2 | 

— patent publication US20260335282A1, “NOVEL 3-ARYLIDENE-2-INDOLINONE DERIVATIVES FOR THERAPEUTIC USE” (ISTANBUL UNIVERSITESI REKTORLUGU, priority 2022, published 2026)
